Experimental data taken from article PMC5927802, “Pharmacokinetics, safety, and tolerability of the 2‐ and 3‐direct‐acting antiviral combination of AL‐335, odalasvir, and simeprevir in healthy subjects” (Pharmacology Research & Perspectives, 2018).
Entries after “also recorded” stand apart in the source; their conditions may differ. Where two headings read alike, the source gives them in different places.

Experiments:
[1] = test system: breast cancer resistance protein (BCRP); conditions: not told; cited from earlier work
OATP1B1/1B3 = conditions: cited from earlier work
[2] = Plasma pharmacokinetics, Phase I open‐label two‐group fixed‐sequence drug‐drug interaction study; conditions: for C min / concentration at 23.9 h / concentration at 24 h / Cmax: mean (SD); for T last / Tmax: median (range); for AUC0‐24 h LSM ratio / C min LSM ratio / Cmax LSM ratio: point estimate (90% CI); for concentration at 23.9 h / concentration at 24 h / Cmax / Tmax: human, plasma, oral; for concentration at 23.9 h / concentration at 24 h: C last; for Tmax: T max
Excerpt: This was an open‐label, two‐group, fixed‐sequence study conducted at a single study center in Rennes, France (Biotrial). A two‐group, fixed‐sequence study design was chosen as this was deemed to be the most efficient way to evaluate the effect of simeprevir with/without odalasvir on AL‐335; and vice versa (Group 1) and the effect of odalasvir with/without simeprevir on AL‐335; and vice versa (Group 2). Thus, this study design had the potential to gather both 2‐way and 3‐way DDIs. For both groups, the study consisted of a screening period, a study period, and two follow‐up visits. The study was authorized by the French National Agency for the Safety of Medicine and Health Products (ANSM) and was approved by an Independent Ethics Committee (Comité de Protection des Personnes [CPP] Ouest VI, Brest, France; Reference CPP Ouest 6–CPP 888/MS1), and was conducted in accordance with the principles of the Declaration of Helsinki and International Conference on Harmonization. All subjects provided written informed consent to participate. Drug and molecular target nomenclature in this manuscript conforms to the British Journal of Pharmacology's Concise Guide to Pharmacology 2017/18.19
Subjects in Group 1 received simeprevir 150 mg QD on days 4‐23, odalasvir 150 mg (loading dose) on day 14, odalasvir 50 mg QD on days 15‐23, and AL‐335 800 mg QD on days 1‐3, 11‐13, and 21‐23. Subjects in Group 2 received odalasvir 150 mg (loading dose) on day 4, odalasvir 50 mg QD on days 5‐23, simeprevir 150 mg QD on days 14‐23, and AL‐335 800 mg QD on days 1‐3, 11‐13, and 21‐23. […] A minimum of 10 days was considered sufficient for both odalasvir and simeprevir to reach steady‐state.
Subjects were assigned sequentially to Group 1 then to Group 2 after confirming eligibility.
As this was an […] pharmacokinetic study, blood samples for pharmacokinetic analysis were collected predose and at 0.25, 0.5, 1, 2, 3, 4, 6, 8, 10, 12, and 24 hours postdose on days 3, 13, and 23 for determination of AL‐335, ALS‐022399, and ALS‐022227 plasma concentrations (Groups 1 and 2). For simeprevir, blood samples for determination of simeprevir plasma concentrations were taken at the same time points but on days 10, 13, 20, and 23 (Group 1) or days 20 and 23 (Group 2). Blood samples for the determination of odalasvir plasma concentrations were collected predose and at 1, 3, 4, 5, 6, 7, 8, 9, 10, 12, 16, and 24 hours postdose on days 20 and 23 (Group 1) or days 10, 13, 20, and 23 (Group 2), with two further samples also collected on the day 7 and day 28 follow‐up assessments (both groups).
Plasma concentrations of AL‐335, ALS‐022399, ALS‐022227, odalasvir, and simeprevir were determined using validated liquid chromatography‐tandem mass spectrometry methods. Dichlorvos solution was added to blood samples from AL‐335‐treated subjects to stabilize AL‐335 and its metabolites (25 μL of 5 mmol/L dichlorvos into 1 mL blood). The lower limit of quantification was 1 ng/mL, 2 ng/mL, and 5 ng/mL for AL‐335, ALS‐022399, and ALS‐022227, respectively, 1 ng/mL for odalasvir, and 2 ng/mL for simeprevir.
Pharmacokinetic analyses were performed on all subjects with available profiles who received at least one dose of study drug without any protocol deviation affecting pharmacokinetic evaluation. […] Secondary parameters were last observed plasma concentration, apparent elimination half‐life, time of the maximum observed plasma concentration (T max), and time to last measurable plasma concentration (T last).

CYP1A2 = test system: CYP1A2; parameters: method as in PMID 26353895; conditions: cited from earlier work
CYP3A = test system: CYP3A; parameters: method as in PMID 26353895; conditions: cited from earlier work
[3] = Group 1 Day 13, SMV + AL‐335 versus SMV alone
[4] = Group 1 Day 20, SMV + ODV versus SMV alone
[5] = Group 1 Day 23, SMV + AL‐335 + ODV versus SMV alone
[6] = Group 1 Day 23, SMV + AL‐335 + ODV
[7] = Group 2 Day 23, SMV + AL‐335 + ODV

C min ([2]; Group 1 Day 10, SMV alone): 833 (856) ng/mL
T last ([2]; Group 1 Day 10, SMV alone): 23.9 (23.9‐24.0) h
C min ([2]; Group 1 Day 13, SMV + AL‐335): 857 (1129) ng/mL
T last ([2]; Group 1 Day 13, SMV + AL‐335): 23.9 (23.9‐24.0) h
AUC0‐24 h LSM ratio [2, 3]: 0.93 (0.83‐1.05)
C min LSM ratio [2, 3]: 0.88 (0.76‐1.02)
Cmax LSM ratio [2, 3]: 0.89 (0.79‐1.00)
AUC0‐24 h LSM ratio [2, 4]: 1.76 (1.53‐2.01)
C min LSM ratio [2, 4]: 1.41 (1.01‐1.99)
Cmax LSM ratio [2, 4]: 1.66 (1.36‐2.01)
C min ([2]; Group 1 Day 20, SMV + ODV): 1446 (2064) ng/mL
T last ([2]; Group 1 Day 20, SMV + ODV): 23.9 (23.9‐24.0) h
AUC0‐24 h LSM ratio [2, 5]: 1.60 (1.38‐1.85)
C min LSM ratio [2, 5]: 1.82 (1.52‐2.19)
Cmax LSM ratio [2, 5]: 1.43 (1.23‐1.66)
C min [2, 6]: 1910 (2441) ng/mL
T last [2, 6]: 24.0 (24.0‐24.0) h
C min ([2]; Group 2 Day 20, SMV + ODV): 1274 (1035) ng/mL
T last ([2]; Group 2 Day 20, SMV + ODV): 23.9 (23.8‐24.1) h
C min [2, 7]: 1847 (2313) ng/mL
T last [2, 7]: 24.0 (24.0‐24.1) h
concentration at 23.9 h ([2]; 150 mg, Group 1 Day 10, SMV alone): 981 ng/mL
concentration at 23.9 h ([2]; Group 1 Day 13, SMV + AL‐335): 1020 ng/mL
concentration at 23.9 h ([2]; Group 1 Day 20, SMV + ODV): 2340 ng/mL
concentration at 24 h [2, 6]: 2390 ng/mL
concentration at 23.9 h ([2]; Group 2 Day 20, SMV + ODV): 2140 ng/mL
concentration at 24 h [2, 7]: 2590 ng/mL
Cmax ([2]; Group 1 Day 10, SMV alone): 2960 ng/mL
Cmax ([2]; Group 1 Day 13, SMV + AL‐335): 2760 ng/mL
Cmax ([2]; Group 1 Day 20, SMV + ODV): 5220 ng/mL
Cmax [2, 6]: 4740 ng/mL
Cmax ([2]; Group 2 Day 20, SMV + ODV): 4530 ng/mL
Cmax [2, 7]: 4950 ng/mL
Tmax ([2]; Group 1 Day 10, SMV alone): 6 h
Tmax ([2]; Group 1 Day 13, SMV + AL‐335): 6 h
Tmax ([2]; Group 1 Day 20, SMV + ODV): 6 h
Tmax [2, 6]: 6 h
Tmax ([2]; Group 2 Day 20, SMV + ODV): 6 h
Tmax [2, 7]: 8 h
difference in T max ([2]; simeprevir coadministered with odalasvir): No clinically relevant difference
Compound: COc1ccc2c(O[C@@H]3C[C@H]4C(=O)N[C@]5(C(=O)NS(=O)(=O)C6CC6)C[C@H]5/C=C\CCCCN(C)C(=O)[C@@H]4C3)cc(-c3nc(C(C)C)cs3)nc2c1C [simeprevir]
BCRP substrate / inhibitor status [1]: substrate and inhibitor
OATP1B1/3 substrate / inhibitor status (OATP1B1/1B3): clinically confirmed OATP1B1 inhibitor
OATP1B1/3 substrate / inhibitor status (OATP1B1/1B3; listed as Simeprevir): substrate and inhibitor
effect of AL‐335 on pharmacokinetics ([2]; AL‐335 800 mg QD coadministered): no effect; also recorded: did not alter; also recorded: no impact
CYP1A2 inhibition (CYP1A2): mild but not clinically relevant inhibitor
CYP3A inhibition (CYP3A): mild inhibitor of intestinal (not hepatic) CYP3A
